According to patent US9387221B2, “SDF-1 binding nucleic acids and the use thereof in cancer treatment” (NOXXON Pharma AG, priority 2010, dated 2016):

How the values were obtained:
[1] = target: CXCR4 (Mus musculus, UniProt P70658); details: GBM mouse xenograft, irradiation; cited from earlier work
[2] = target: CXCR4 (Homo sapiens, UniProt P61073); details: MM cells in vivo, CXCR4 blockade; cited from earlier work
[3] = test system: stromal MS-5 cells; assay: Viability of stromal MS-5 cells in the coculture; assay type: cell-based, murine; details: data not shown
Experimental: The murine stromal cell line MS-5 (ACC 441) was purchased from the DSMZ, the Multiple Myeloma cell line RPMI8226 (CCL-155) was purchased from the ATCC. The Multiple Myeloma cell line RPMI8226 was maintained in RPMI medium 1640 GlutaMAX (Invitrogen) supplemented with 10% FBS (Biochrom) and penicillin-streptomycin, the MS-5 cells were cultured in MEM alpha GlutaMAX (Invitrogen) with 10% FBS and penicillin-streptomycin. For chemosensitization coculture experiments stromal MS-5 cells were seeded the day before onto 24-well plates (the inner eight wells) at a concentration of 8×10^4/mL/well in MEM alpha GlutaMAX medium (+10% FBS) and incubated at 37° C. in 5% CO2. The confluent stromal cell layer was washed and 0.5 mL RPMI medium 1640 (+1% FBS) was added to the wells. SDF-1 binding […] NOX-A12 or revNOX-A12 was subsequently added to the wells to a final concentration of 100 nM and incubated for four hours. 3.5×10^5 RPMI8226 cells in RPMI medium 1640 (+1% FBS) were added to the stromal cell layer. Four hours later, 1 μ[…] (Sigma Aldrich) was added to the cells when indicated. After 40 hours of incubation the cells were collected in 15 mL tubes, first the supernatant was harvested and then the attached cells were trypsinized including MS-5 cells. […] Cell viability and cell number were determined by Flow Cytometry using the Guava EasyCyte 6HT/2L (Millipore).

[4] = test system: RPMI-8226 MM cells; assay: Chemosensitization coculture of RPMI-8226 MM cells with stromal MS-5 cells; assay type: cell-based; details: 100 nM NOX-A12, 1 μM F-ara-A, 40 hours
Experimental: In order to mimic the in vivo interaction of the BM microenvironment with leukemia cells, an in vitro coculture system with murine BM stromal MS-5 cells and the multiple myeloma (abbr. MM) cell line RPMI 8226 was established. Aim of the experiment was to show whether SDF-1 binding […] NOX-A12 sensitizes MM cells in coculture with stromal cells to effects of chemotherapeutic agents. Stromal MS-5 cells secreting SDF 1 were incubated with SDF-1 binding […] NOX-A12 or the non-functional revNOX-A12. The MM cell line RPMI-8226 was added to the confluent stromal cell layer. The cells were then incubated with the chemotherapeutic agent F ara A (Fludarabine) for 40 hours. Cell Viability viability was measured. The murine stromal cell line MS-5 (ACC 441) was purchased from the DSMZ, the Multiple Myeloma cell line RPMI8226 (CCL-155) was purchased from the ATCC. The Multiple Myeloma cell line RPMI8226 was maintained in RPMI medium 1640 GlutaMAX (Invitrogen) supplemented with 10% FBS (Biochrom) and penicillin-streptomycin, the MS-5 cells were cultured in MEM alpha GlutaMAX (Invitrogen) with 10% FBS and penicillin-streptomycin. […] Cell viability and cell number were determined by Flow Cytometry using the Guava EasyCyte 6HT/2L (Millipore).

Sequence of CXCR4 (Mus musculus, UniProt P70658) (P70658 whole entry): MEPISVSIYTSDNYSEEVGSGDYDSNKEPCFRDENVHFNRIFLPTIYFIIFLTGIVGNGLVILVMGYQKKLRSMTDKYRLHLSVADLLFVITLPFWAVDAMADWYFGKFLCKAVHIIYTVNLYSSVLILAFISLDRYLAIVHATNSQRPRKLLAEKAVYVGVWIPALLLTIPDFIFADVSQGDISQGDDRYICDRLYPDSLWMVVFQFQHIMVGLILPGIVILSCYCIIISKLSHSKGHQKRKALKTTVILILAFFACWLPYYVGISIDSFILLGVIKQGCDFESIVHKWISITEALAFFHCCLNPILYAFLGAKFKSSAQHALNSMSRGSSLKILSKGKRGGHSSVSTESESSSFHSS
Sequence of CXCR4 (Homo sapiens, UniProt P61073) (P61073 whole entry, species assumed): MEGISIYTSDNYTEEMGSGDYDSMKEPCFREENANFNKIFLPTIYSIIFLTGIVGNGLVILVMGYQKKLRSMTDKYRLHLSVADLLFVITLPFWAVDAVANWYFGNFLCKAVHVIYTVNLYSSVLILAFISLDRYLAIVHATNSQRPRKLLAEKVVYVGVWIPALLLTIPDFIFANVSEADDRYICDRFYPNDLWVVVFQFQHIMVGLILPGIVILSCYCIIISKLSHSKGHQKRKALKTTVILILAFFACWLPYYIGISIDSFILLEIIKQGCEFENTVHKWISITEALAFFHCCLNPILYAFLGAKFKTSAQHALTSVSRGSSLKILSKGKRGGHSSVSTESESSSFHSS

| Compound | influx of BMDCs in the irradiated tumor [1] | tumor reduction induced by bortezomib [2] | viability of stromal MS-5 cells [3] | cell viability of RPMI-8226 cells cocultured with stromal MS-5 cells [4] |
| --- | --- | --- | --- | --- |
| c1cc(CN2CCCNCCNCCCNCC2)ccc1CN1CCCNCCNCCCNCC1 [AMD3100] | prevented the influx of BMDCs in the irradiated tumor | enhanced tumor reduction induced by bortezomib | – | – |
| Nc1nc(F)nc2c1ncn2[C@@H]1O[C@H](CO)[C@@H](O)[C@@H]1O [F-ara-A, Fludarabine, reference compound] | – | – | neither affected | no significant effect |
